{"source": "patent US20250230435A1", "about": "“METHODS OF TREATMENT OF GNAQ AND GNA11 DRIVEN DISEASE” (THE FRANCIS CRICK INSTITUTE LIMITED, priority 2022, published 2025)", "format_in_all_cases": "cell-based, human", "key": {"GNAQR183Q mutant allele": {"tested_on": "GNAQR183Q mutant allele", "assay": "Expression of GNAQR183Q mutant allele in UPMM1, mutant-specific primers", "conditions": "UPMM1 cells", "protocol": "(§1) FIG. 10—GNAQ and CRAC inhibition in uveal melanoma cells. […] UPMM1 cells were non-transfected or transfected with non-target control siRNA (siSCRA) or with 2 distinct GNAQR183Q-mutant specific siRNAs (siGNAQmut3 and siGNAQmut6) and expression of the mutant allele was measured by using GNAQR183Q-mutant specific primers previously validated (forward primer: […] (SEQ ID NO:25); reverse primer: […] (SEQ ID NO:26). B. Transfection with siRNAs silencing GNAQ mutant allele reduced GPCR ligand-induced calcium intra-cellular accumulation. Cells loaded with Fluo-8 calcium marker were stimulated by the GPCR ligand leukotriene D4 (LTD4) and fluorescence was recorded over the time. C. […] Cells loaded with Fluo-8 calcium probe were treated by CM4620 1, 3 or 10 μM, stimulated by the GPCR ligand leukotriene D4 (LTD4) and fluorescence was recorded over the time."}, "[1]": {"tested_on": "GNA11 c.547C>T, p.(R183C) allele", "assay": "Western blot knock-down of HA-tagged Gα11 in TIME cells expressing wild-type or p.R183C", "conditions": "25 nM siRNA, 24 h after transfection, TIME cells stably expressing wild-type or p.R183C HA-tagged Gα11", "protocol": "(§2) FIG. 5—Designing and testing siRNA specific for GNAQ c.548G>A, p.(R183Q) A. Schematic representation of the 6 siRNAs designed to target specifically GNAQ c.548G>A allele. B. TIME cells stably expressing either wild-type or p.R183Q HA-tagged Gαq were transfected by 50 nM siRNAs targeting GNAQ c.548G>A, p.(R183Q) allele and analysed by western-blot 24 h after transfection. […] C. (average of three experiments, * p<0.05). D. Schematic representation of the 6 siRNAs designed to target specifically GNA11 c.547C>T p.(R183C). E. TIME cells stably expressing either wild-type or p.R183C HA-tagged Gα11 were transfected by 25 nM siRNAs targeting GNA11 c.547C>T, p.(R183C) allele and analysed by western-blot 24 h after transfection. […] (average of three experiments, * p<0.05).\n(§3) hTERT-immortalised microvascular endothelial cells (TIME-ATCC CRL-4025TM, “TIME” cells) and their transgenic derivatives were maintained in EBMTM-2 Endothelial Cell Growth Basal Medium-2 (Lonza CC-3156), supplemented with EGMTM-2 BulletKit (Lonza CC-3162) and 3% fetal bovine serum (Gibco).\n(§4) TIME cells were transduced with lentiviral vectors to induce stable expression of HA-tagged forms of GNAQ WT, GNAQ p.(R183Q), GNA11 WT, GNA11 p.(R183C) cDNAs (FIG. 4), and we confirmed presence of the mutations in the genomic DNA by Sanger sequencing (FIG. 4B). […]"}, "[2]": {"tested_on": "GNAQ c.548G>A, p.(R183Q) allele", "assay": "Western blot knock-down of HA-tagged Gαq in TIME cells expressing wild-type or p.R183Q", "conditions": "50 nM siRNA, 24 h after transfection, TIME cells stably expressing wild-type or p.R183Q HA-tagged Gαq", "protocol": "as §2, §3, §4"}, "TIME GNAQR183Q cells [3]": {"tested_on": "TIME GNAQR183Q cells", "assay": "Fluo-8 AM assay, thrombin-induced intracellular calcium, GNAQ variant cells", "conditions": "1 μM for 20 minutes, thrombin 1 U/ml", "protocol": "(§5) FIG. 3—CRAC channel inhibition and variant-specific siRNAs rescue aberrant calcium signalling in variant cells. A-B. TIME-GNAQ^WT (A) or −GNAQ^R183Q (B) were loaded with intracellular calcium probe Fluo-8 and treated for 20 minutes with vehicle or 1 μM […]. Following treatment, cells were stimulated with thrombin 1 U/ml and fluorescence recorded for 300 seconds. The graphs represent an avarage of three independent experiments performed in technical quadruplicates. C. Means +/−SD deviation of areas under the curve calculated from three experiments summarised in […]. Statistical comparisons were performed by two-tailed paired t test (n.s=not statistically significant, * p=0.0284). […] IP1 concentration was measured 48 hours after transfection and shown as mean +/−SD of three independent experiments. […] TIME-GNAQ p.(R183Q); NFAT-Luc were transfected with non-target siRNA (siSCRA) or two siRNAs for specific silencing of the variant GNAQ allele (siGNAQmut 1 and 3) and luciferase reporter activity was measured 48 hours after transfection in complete medium or after four hours of starvation, shown as mean +/−SD of % change of cells transfected with mock in three independent experiments. […]"}, "TIME GNAQWT cells [4]": {"tested_on": "TIME GNAQWT cells", "assay": "Fluo-8 AM assay, thrombin-induced intracellular calcium, GNAQ WT cells", "conditions": "1 μM for 20 minutes, thrombin 1 U/ml", "protocol": "as §5"}, "TIME GNAQR183Q cells [5]": {"tested_on": "TIME GNAQR183Q cells", "assay": "In vitro angiogenesis (endothelial tube formation) assay, GNAQ variant cells", "conditions": "1 μM, in presence of thrombin 0.3 U/ml, vs vehicle", "from_the_text": "(§6) FIG. 8—In vitro angiogenesis is disrupted by mutant GNAQ and rescued by CRAC channel inhibition. (A) Representative images captured with EVOS Floid Imaging System following Calcein AM staining during in vitro endothelial cell tube formation of TIME cells stably expressing either GNAQ WT or GNAQ R183Q. […] Statistical significance calculated using two-tailed unpaired t-test on three independent experiments (**** p<0.0001). […] Results shown as mean of a technical triplicate for each of 4 independent experiments. Statistical analysis performed by two-tailed paired t-test on four independent experiments (n.s=not statistically significant, * p=0.0125). […] Results shown as mean +/−SD of three independent experiments, and statistical analysis performed by two-tailed paired t-test (n.s=not statistically significant, * p=0.04).\n(§7) TIME endothelial cell models were used to assess angiogenesis using a standard in vitro angiogenesis assay. […] Furthermore, thrombin GPCR activation disrupted angiogenesis in GNAQR183Q more than in GNAQWT (FIG. 8C)."}, "TIME GNAQWT cells [6]": {"tested_on": "TIME GNAQWT cells", "assay": "In vitro angiogenesis (endothelial tube formation) assay, GNAQ WT cells", "conditions": "1 μM, in presence of thrombin 0.3 U/ml, vs vehicle", "from_the_text": "as §6, §7"}, "UPMM1 UM cell line": {"tested_on": "UPMM1 UM cell line", "assay": "Fluo-8 assay, LTD4-induced intracellular calcium in UPMM1", "conditions": "UPMM1, Fluo-8, 1, 3 or 10 μM, leukotriene D4 stimulation", "protocol": "as §1"}}, "note": "Entries after “also recorded” stand apart in the source; their conditions may differ."}
{"compound": "AGAGUUCAAGUCCCCACCA[dT][dT] (antisense UGGUGGGGACUUGAACUCU; dTdT overhangs, chemistry not fully specified) [siGNAQmut #6, siRNA to GNAQ c.548G>A p.(R183Q)]", "values": [{"measurement": "expression of the GNAQR183Q mutant allele", "setting": "GNAQR183Q mutant allele", "result": "reduced expression of the mutant allele"}]}
{"compound": "CUGCGGGUCUGCGUGCCCA[dT][dT] (antisense UGGGCACGCAGACCCGCAG; dTdT overhangs, chemistry not fully specified) [siGNA11mut #4, siRNA to GNA11 c.547C>T p.(R183C)]", "values": [{"measurement": "specific knock-down of variant Gα11 protein over wild-type (western blot)", "setting": "[1]", "result": "specific knock-down of variant protein over wild-type counterparts"}]}
{"compound": "CUUAGAGUUCAAGUCCCCA[dT][dT] (antisense GGGGACUUGAACUCUAAGC; dTdT overhangs, chemistry not fully specified) [siGNAQmut #3, siRNA to GNAQ c.548G>A p.(R183Q)]", "values": [{"measurement": "specific knock-down of variant Gαq protein over wild-type (western blot)", "setting": "[2]", "result": "specific knock-down of variant protein over wild-type counterparts"}, {"measurement": "expression of the GNAQR183Q mutant allele", "setting": "GNAQR183Q mutant allele", "result": "reduced expression of the mutant allele"}]}
{"compound": "Cc1cccc(F)c1C(=O)Nc1cnc(-c2cc3c(cc2Cl)OC(F)(F)O3)cn1", "note": "[CM4620]", "values": [{"measurement": "thrombin-induced calcium signalling, GNAQ-variant cells", "setting": "TIME GNAQR183Q cells [3]", "result": "inhibits the variant cell response; also recorded: markedly rescuing the prolonged calcium intracellular peak"}, {"measurement": "thrombin-induced calcium signalling, GNAQ WT cells", "setting": "TIME GNAQWT cells [4]", "result": "limited effects"}, {"measurement": "tubule formation (total length of the network), GNAQR183Q", "setting": "TIME GNAQR183Q cells [5]", "result": "improved tubule formation"}, {"measurement": "tubule formation (total length of the network), GNAQWT", "setting": "TIME GNAQWT cells [6]", "result": "no statistically significant difference; also recorded: not GNAQWT"}, {"measurement": "GPCR ligand (LTD4)-induced accumulation of intracellular calcium", "setting": "UPMM1 UM cell line", "result": "reduced the GPCR ligand-induced accumulation of intracellular calcium"}]}
{"compound": "UGCUUAGAGUUCAAGUCCC[dT][dT] (antisense GGGACUUGAACUCUAAGCA; dTdT overhangs, chemistry not fully specified) [siGNAQmut #1, siRNA to GNAQ c.548G>A p.(R183Q)]", "values": [{"measurement": "specific knock-down of variant Gαq protein over wild-type (western blot)", "setting": "[2]", "result": "specific knock-down of variant protein over wild-type counterparts"}]}
